Data: US11510964B2, “Macrocyclic peptides to decrease c-Myc protein levels and reduce cancer cell growth” (University of Kansas, priority 2017, dated 2022)
“Also recorded” adds a separate entry of the source. Like-named read-outs stand apart in the source and are kept apart here. Non-standard residues stand in square brackets, D forms with d. Residues, ends and D or L forms follow the SMILES beside them.

Experiments:
22Rv1 cells [1] = type: cell-based, human; conditions: read-out: IC50, cell growth
Protocol: (§1) Human prostate cancer PC-3 cells were cultured and maintained in EMEM (ATCC), non-prostate HEK (human embryonic kidney) cells were cultured in DMEM, human prostate cancer DU145, LNCaP, 22Rv1 cells were cultured in RPMI 1640 (ATCC), and normal BPH-1 prostate cells and prostate cancer C4-2 cell line were cultured in RPMI 1640 (ATCC), all containing 10% fetal bovine serum (Atlanta Biologicals) and 1% penicillin/streptomycin (Invitrogen). Cells were grown at 37° C. in humidified air with 5% CO2 and passaged every fourth to fifth day following trypsinization with trypsin/EDTA (Invitrogen).^16
(§2) PC-3, LNCaP, DU 145, 22Rv1, C4-2, BPH-1, and HEK cells were grown to a density of 2000 cells/well in 96 well plates and treated with [D-Trp]CJ-15,208 or other peptides for 24-72 h in duplicate. Media containing [D-Trp]CJ-15,208 was changed every 24 h. The proliferation of treated cells was determined using the cell proliferation reagent WST-1 (Roche) per the manufacturer's instructions and compared to […] control cells in 1% DMSO in media. After treatment with compound 10 μL of the reagent was added to the well in 100 μL culture media, and the cells incubated at 37° C. for 30 min. The absorbance of the media in each well was measured at […] using a plate reader (BioTek). The percentage cell proliferation was normalized to vehicle treated control cells calculated as: (mean absorbance of sample/mean absorbance of control cells)×100.^38
(§3) Each experiment was performed in triplicate unless otherwise stated in the figure legend. GraphPad Prism 5 was used to determine IC50 values. Data represent the mean value+/−SEM. Compound vs. vehicle treated cells in the cell cycle phase and apoptosis experiments (FIGS. 5-8) were compared using the student's t-test, with a two-tailed, unpaired method, using the Prism software. The effects of compound vs. vehicle treatment on protein levels (FIG. 10) were evaluated by one-way ANOVA with Dunnett's test for multiple comparisons.

DU145 cells = type: cell-based, human; conditions: read-out: IC50, cell growth
Protocol: as §1, §2, §3

LNCaP cells [2] = type: cell-based, human; conditions: read-out: IC50, cell growth
Protocol: as §1, §2, §3

PC-3 cells [3] = type: cell-based, human; conditions: read-out: IC50, cell growth
Protocol: as §1, §2, §3

c-Myc mRNA in PC-3 cells = assay: c-Myc mRNA measurement (real-time PCR); type: cell-based, human; conditions: 10 μM, 0 h to 48 h
Protocol: PC-3 cells were grown in 10 cm petri dishes to 75% confluency, and then treated with [D-Trp] CJ-15,208 (10 μM) for 2-48 h. Cells were harvested and the total RNA from each sample was isolated using the Aurum Total RNA Mini Kit #732-6820 (Bio-Rad) per the manufacturer's instructions. The RNA concentration in the sample was determined using a NanoDrop ND-1000 spectrophotometer. Total RNA (1 μg) from each sample was used to synthesize cDNA using the iScript cDNA Synthesis Kit (BioRad). Real-time PCR was performed with a Power-SYBR Green PCR Master Mix (Applied Biosystems) using the following thermal cycles: initial activation at 95° C. for 5 min, followed by 40 cycles of 95° C. for 15 s and 60° C. for 1 min. The fluorescence was determined at the melting temperature of the product for 20 s (ABI PRISM 7000 Sequence Detection System, Applied Biosystems). The following primer sets were used to amplify regions of c-Myc and GAPDH (internal control): c-Myc (forward: 5′-CTG GTG CTC CAT GAG GAG-3′ (SEQ ID NO: 1), reverse: 5′-AGG TGA TCC AGA CTC TGA C-3′ SEQ ID NO: 2)) and GAPDH (forward: 5′-CCA TGG AGA AGG CTG GGG-3′ (SEQ ID NO: 3), reverse: 5′-CAAATGTGTCATGGATGACC-3′ SEQ ID NO: 4)). The levels of c-Myc mRNA were normalized to the GAPDH mRNA levels.^37

22Rv1 cells [4] = assay: Cell viability assay (Trypan Blue); type: cell-based, human; conditions: 48 h and 72 h
Protocol: (§4) The viability of prostate cancer cells was determined using Trypan Blue (Sigma) per the manufacturer's instructions. Cells were grown in 6 well plates to a density of 1×10^5 cells/well to 75% confluency and treated with compound in 0.5% DMSO at the indicated concentrations for 24-72 h, with 0.5% DMSO as the vehicle control. After treatment, the cell media from each well was collected. The cells were washed with phosphate buffer saline (PBS), trypsinized, and collected. All of the cells, combined media, and washes were centrifuged at 250×g for 5 min. The supernatant was discarded, and the cell pellet was resuspended in 500 μL PBS. Trypan blue (10 μL) was added to 100 μL of resuspended cells, and the solution incubated for 10 min. The cell number in 10 μL was then counted using a hematocytometer. Viable cells (not stained) were distinguished from dead cells (colored blue) and the % viable cells calculated as follows: [(number of white cells)/(number of total cells (white+blue))]*100 and compared with untreated cells.^16

LNCaP cells [5] = assay: Cell viability assay (Trypan Blue); type: cell-based, human; conditions: 48 h and 72 h
Protocol: as §4

PC-3 cells [6] = assay: Cell viability assay (Trypan Blue); type: cell-based, human; conditions: 48 h and 72 h
Protocol: as §4

BPH-1 cells = assay: Cell viability assay (Trypan Blue); type: cell-based; conditions: BPH-1 normal prostate cells, 1-40 μM, 48 h
Protocol: as §4

[7] = cited from earlier work

In the case of O=C1N[C@H](Cc2c[nH]c3ccccc23)C(=O)N[C@@H](Cc2ccccc2)C(=O)N2CCC[C@@H]2C(=O)N[C@H]1Cc1ccccc1 [[D-Trp]CJ-15,208, cyclo[Phe-D-Pro-Phe-D-Trp]] (cyclo(F[dP]F[dW])), the IC50 (22Rv1 cells [1]; 48 h) is reported as 8.8 ± 4 µM, the IC50 (22Rv1 cells [1]; 72 h) is reported as 4 ± 0.8 µM and the IC50 (DU145 cells; 48 h) is reported as 1.2 ± 0.2 µM. The IC50 (DU145 cells; 72 h) was 0.7 ± 0.1 µM, the IC50 (LNCaP cells [2]; 48 h) was > 50 µM and the IC50 (LNCaP cells [2]; 72 h) was 3 ± 1 µM. For the same molecule, the IC50 (PC-3 cells [3]; 48 h) was 16.5 ± 0.7 µM, the IC50 (PC-3 cells [3]; 72 h) was 2 ± 1 µM and the “c-Myc mRNA expression” value (c-Myc mRNA in PC-3 cells) was “did not affect mRNA expression; also recorded: did not alter cmyc mRNA levels”. For the same molecule, the “cell death (Trypan blue)” value (22Rv1 cells [4]) was “resulted in cell death”, the “cell death (Trypan blue)” value (LNCaP cells [5]) was “resulted in cell death” and the “cell death (Trypan blue)” value (PC-3 cells [6]) was “resulted in cell death”. The “cell death (Trypan blue)” value (BPH-1 cells) was “no evidence of cell death” and the “activity after oral administration” value [7] was “active after oral administration”.
